Source: patent publication US20250353891A1 (MEDIMMUNE LIMITED, priority 2022, published 2025)
Starred links: 1 amine or outer side, 2 acyl side, 3 side chain; linkers in the order of their positions; H or OH if unused. Non-standard residues stand in square brackets, D forms with d. Residues, ends and D or L forms follow the SMILES beside them. Groups on a side chain read outwards from the residue. *: point of attachment. C18 diacid = O=C(O)CCCCCCCCCCCCCCCCC(=O)*; γGlu = O=C(O)[C@H](CCC(=O)[*:2])N[*:1]; αMeF = C[C@](N)(Cc1ccccc1)C(=O)O; Aib = CC(C)(N)C(=O)O

Key:
[1] = tested on: GLP-1R knockout (KO) mice; experiment: Glucose change in GLP-1R knockout mice; assay type: in vivo, mouse; settings: GLP-1R KO mice, s.c., 120 min vs 0 min, somatostatin pretreatment (octreotide) 30 min prior to cpd
Summary of the method: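 GLP-1R knockout mice (n=4-8/group, sorted by body weight) were fasted 2 h, and in some studies pretreated with octreotide 10 mg/kg 30 min before peptide injection. Mice were reused up to 3 times with at least 1-week wash-out.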

wildtype (WT) mice = experiment: Glucose change in wildtype mice; assay type: in vivo, mouse; settings: s.c., 120 min vs 0 min, somatostatin pretreatment (octreotide) 30 min prior to cpd
Summary of the method: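 Wildtype mice aged 8-14 weeks, fasted 2 h, sometimes pre-treated with octreotide 10 mg/kg 30 min before peptide injection. Blood glucose by glucometer at -30, 0, 30, 60, 120, 180, 240 and 360 min; n=4-8/group, mice reused up to 3 times with ≥1 week wash-out.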

[2] = Mouse acute food intake study; assay type: in vivo; settings: male C57Bl/6 mice, s.c., dose 10 nmol/kg, cumulative food intake at 24 hr vs vehicle
Summary of the method: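 Peptide or vehicle went subcutaneously (5 mL/kg) to 6-8 h-fasted male C57Bl/6 mice shortly before the dark phase, with groups balanced on body weight and 24-hour intake. Cumulative food consumption was derived from 48 h of automated BioDaq monitoring with free food and water access.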

[3] = Proteolytic resistance to FasSSIF/Pancreatin; assay type: in vitro ADME; settings: simulated intestinal fluid
Summary of the method: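 Peptide (1.0 mg) in pre-warmed FasSSIF, proteolysis started with fresh FasSSIF/USP Pancreatin and held at 37 °C. Aliquots at 0, 5, 10, 15, 30 min quenched in 10% TFA; remaining intact peptide estimated by RP-HPLC peak area, UV 210 nm.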

recombinant Neprilysin = molecular target: T1, recombinant Neprilysin (Homo sapiens, UniProt P08473); experiment: Proteolytic resistance to neprilysin; assay type: in vitro ADME; settings: pH 8.3
T1 construct: purchased R&D Systems 1182-ZNC-010
T1 sequence (P08473 52-750 limits assumed): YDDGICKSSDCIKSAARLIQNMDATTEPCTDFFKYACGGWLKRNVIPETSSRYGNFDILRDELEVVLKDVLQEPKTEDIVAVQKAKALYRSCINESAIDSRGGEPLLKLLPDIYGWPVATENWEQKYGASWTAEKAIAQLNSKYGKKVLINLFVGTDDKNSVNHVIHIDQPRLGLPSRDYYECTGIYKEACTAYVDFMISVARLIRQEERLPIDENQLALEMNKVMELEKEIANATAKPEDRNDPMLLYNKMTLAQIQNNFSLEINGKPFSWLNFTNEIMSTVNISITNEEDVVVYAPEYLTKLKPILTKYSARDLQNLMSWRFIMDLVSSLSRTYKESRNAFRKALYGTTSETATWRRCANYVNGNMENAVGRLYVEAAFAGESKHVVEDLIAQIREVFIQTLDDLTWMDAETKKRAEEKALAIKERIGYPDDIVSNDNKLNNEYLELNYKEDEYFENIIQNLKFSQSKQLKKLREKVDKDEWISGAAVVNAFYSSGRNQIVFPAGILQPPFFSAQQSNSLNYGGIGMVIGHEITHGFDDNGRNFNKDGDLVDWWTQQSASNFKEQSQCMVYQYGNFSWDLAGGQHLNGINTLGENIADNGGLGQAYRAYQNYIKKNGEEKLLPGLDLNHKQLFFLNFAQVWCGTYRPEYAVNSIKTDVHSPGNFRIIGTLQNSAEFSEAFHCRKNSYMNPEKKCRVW
Summary of the method: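 Peptide stock (~250 μM) mixed 1:1 with neprilysin stock (100 μg/mL) in Tris/NaCl/NaHCO3 buffer, pH 8.3, at 37° C. Aliquots at 0, 30 min, 1, 2, 4, 24 h quenched in TFA/acetonitrile. Intact peptide estimated by RP-HPLC peak area at 210 nm.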

remaining at 5 min, 3.3 mg/mL [3]: 96%
remaining at 10 min, 3.3 mg/mL [3]: 98%
remaining at 0.25 h, 3.3 mg/mL [3]: 96%
remaining at 0.5 h, 3.3 mg/mL [3]: 94%
remaining at 0.5 h (recombinant Neprilysin; isolated enzyme neprilysin): 100%
remaining at 2 h (recombinant Neprilysin; isolated enzyme neprilysin): 100%
remaining at 4 h (recombinant Neprilysin; isolated enzyme neprilysin): 97%
remaining at 24 h (recombinant Neprilysin; isolated enzyme neprilysin): 84%
% intact peptide over time (recombinant Neprilysin): 100%
SMILES: CC[C@H](C)[C@H](NC(=O)[C@H](Cc1c[nH]c2ccccc12)NC(=O)[C@H](CCC(=O)O)NC(=O)[C@@H](NC(=O)[C@](C)(Cc1ccccc1)NC(=O)[C@H](CC(=O)O)NC(=O)[C@H](CCC(N)=O)NC(=O)[C@H](C)NC(=O)[C@H](C)NC(=O)[C@H](CCCCNC(=O)CC[C@H](NC(=O)CCCCCCCCCCCCCCCCC(=O)O)C(=O)O)NC(=O)[C@H](CO)NC(=O)[C@H](CC(=O)O)NC(=O)[C@H](CC(C)C)NC(=O)[C@](C)(Cc1ccccc1)NC(=O)[C@H](CCCCN)NC(=O)[C@H](CO)NC(=O)[C@@H](NC(=O)[C@H](CC(=O)O)NC(=O)[C@H](CO)NC(=O)[C@@H](NC(=O)[C@](C)(Cc1ccccc1)NC(=O)[C@H](CO)NC(=O)CNC(=O)[C@H](Cc1c[nH]cn1)NC(=O)C(C)(C)NC(=O)[C@@H](N)Cc1c[nH]cn1)[C@@H](C)O)C(C)C)C(C)C)C(=O)N[C@@H](C)C(=O)N[C@@H](CC(N)=O)C(=O)N[C@H](C(N)=O)[C@@H](C)O [Peptide 7] (H-H[Aib]HGS[αMeF]TSDVSK[αMeF]LDSK([γGlu-C18 diacid])AAQD[αMeF]VEWIANT-NH2; N-terminus assumed)
GLP-1R KO % glucose change 120 min ([1]; 1.5 nmol/kg): 80.8%
GLP-1R KO % glucose change 120 min ([1]; 5 nmol/kg): 152.9%
WT % glucose change 120 min (wildtype (WT) mice; 1.5 nmol/kg): 5.4%
WT % glucose change 120 min (wildtype (WT) mice; 5 nmol/kg): −21.2%
24 hr % Vehicle Food Intake [2]: 55.0%
